Experimental data taken from the supplement of paper PMC11061612.

Key:
Assay in all cases: Bliss excess, mean over the matrix (fraction); higher = more synergy
AM-38 (Glioblastoma) = system: AM-38 (Glioblastoma)
How it was run: (§1)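 Bliss excess equals the observed combination effect minus the expected value EA + EB − EA·EB, where EA and EB are the effects of each agent alone. Combination Emax is the second-highest inhibition within the matrix. Inhibition was scaled from CellTiter-Glo 2.0 luminescence, with 0 set by vehicle wells and 1 by blank wells, after 72 hours of two-drug dosing of cells plated in 1536-well plates.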

[1] = system: BHT-101 (Thyroid Gland Carcinoma)
How it was run: as §1

[2] = system: BxPC-3 (Pancreatic Carcinoma)
How it was run: as §1

[3] = system: IA-LM (Non-Small Cell Lung Carcinoma)
How it was run: as §1

IST-MEL1 (Melanoma) = system: IST-MEL1 (Melanoma)
How it was run: as §1

[4] = system: KP-4 (Pancreatic Carcinoma)
How it was run: as §1

[5] = system: MDA-MB-415 (Breast Carcinoma)
How it was run: as §1

[6] = system: MONO-MAC-6 (Acute Myeloid Leukemia)
How it was run: as §1

[7] = system: NAMALWA (Burkitt's Lymphoma)
How it was run: as §1

NCI-H2373 (Mesothelioma) = system: NCI-H2373 (Mesothelioma)
How it was run: as §1

[8] = system: PL4 (Pancreatic Carcinoma)
How it was run: as §1

[9] = system: Raji (Burkitt's Lymphoma)
How it was run: as §1

[10] = system: SCC-4 (Oral Cavity Carcinoma)
How it was run: as §1

[11] = system: SK-CO-1 (Colorectal Carcinoma)
How it was run: as §1

[12] = system: SNU-423 (Hepatocellular Carcinoma)
How it was run: as §1

[13] = system: SUP-M2 (T-Cell Non-Hodgkin's Lymphoma)
How it was run: as §1

[14] = system: SiHa (Cervical Carcinoma)
How it was run: as §1

[15] = system: T84 (Colorectal Carcinoma)
How it was run: as §1

WM35 (Melanoma) = system: WM35 (Melanoma)
How it was run: as §1

[16] = system: ZR-75-30 (Breast Carcinoma)
How it was run: as §1

Structure (SMILES) | Bliss excess (AM-38 (Glioblastoma)) | Bliss excess [1] | Bliss excess [2] | Bliss excess [3] | Bliss excess (IST-MEL1 (Melanoma)) | Bliss excess [4] | Bliss excess [5] | Bliss excess [6] | Bliss excess [7] | Bliss excess (NCI-H2373 (Mesothelioma)) | Bliss excess [8] | Bliss excess [9] | Bliss excess [10] | Bliss excess [11] | Bliss excess [12] | Bliss excess [13] | Bliss excess [14] | Bliss excess [15] | Bliss excess (WM35 (Melanoma)) | Bliss excess [16]
CN(CCO)CC[C@H](CSc1ccccc1)Nc1ccc(S(=O)(=O)NC(=O)c2ccc(N3CCC([C@@H](O)c4ccccc4-c4ccc(Cl)cc4)CC3)cc2)cc1S(=O)(=O)C(F)(F)F [AZD4320] + Cn1cnc2c(F)c(Nc3ccc(Br)cc3Cl)c(C(=O)NOCCO)cc21 [Selumetinib] (first compound max 1 µM, 7x7, partner max 3 µM) | 0.0746 | 0.0147 | 0.0749 | 0.0652 | -0.072 | -0.0025 | -0.0181 | 0.0401 | 0.0105 | 0.0263 | 0.0473 | 0.0188 | 0.054 | 0.0154 | -0.0228 | 0.0058 | -0.0315 | 0.0142 | 0.154 | -0.06
COc1nnc2ccc(N3CCC(c4ccc(OCCN5CCN(C)C(=O)[C@H]5C)cc4)CC3)nn12 [AZD5153] + C=CCn1c(=O)c2cnc(Nc3ccc(N4CCN(C)CC4)cc3)nc2n1-c1cccc(C(C)(C)O)n1 [AZD1775] (first compound max 1 µM, partner max 1 µM) | -0.0594 | -0.0885 | -0.028 | -0.0554 | -0.0398 | -0.0859 | -0.0878 | -0.0323 | -0.0633 | -0.0589 | 0.0251 | -0.105 | -0.0421 | -0.0741 | -0.0459 | -0.0123 | -0.0583 | -0.0643 | -0.0242 | -0.042
COc1nnc2ccc(N3CCC(c4ccc(OCCN5CCN(C)C(=O)[C@H]5C)cc4)CC3)nn12 [AZD5153] + CC1(C)CCC(CN2CCN(c3ccc(C(=O)NS(=O)(=O)c4ccc(NCC5CCOCC5)c([N+](=O)[O-])c4)c(Oc4cnc5[nH]ccc5c4)c3)CC2)=C(c2ccc(Cl)cc2)C1 [Venetoclax] (first compound max 1 µM, 7x7, partner max 1 µM) | -0.135 | -0.0616 | -0.0745 | -0.0639 | -0.0812 | -0.0465 | -0.0155 | 0.0179 | -0.0558 | -0.0769 | 0.0064 | -0.0247 | -0.0765 | -0.0312 | -0.0223 | -0.0172 | -0.0986 | -0.0874 | -0.0097 | -0.0852
COc1nnc2ccc(N3CCC(c4ccc(OCCN5CCN(C)C(=O)[C@H]5C)cc4)CC3)nn12 [AZD5153] + CCN(CCO)CCCOc1ccc2c(Nc3cc(CC(=O)Nc4cccc(F)c4)[nH]n3)ncnc2c1 [AZD2811] (first compound max 1 µM, 7x7, partner max 1 µM) | 0.039 | -0.0257 | -0.0244 | -0.103 | -0.0196 | -0.0849 | -0.0346 | 0.0519 | -0.0493 | -0.0642 | -0.0333 | 0.0314 | -0.109 | -0.0746 | -0.0417 | -0.0132 | 0.0047 | -0.0536 | -0.016 | -0.0008
COc1nnc2ccc(N3CCC(c4ccc(OCCN5CCN(C)C(=O)[C@H]5C)cc4)CC3)nn12 [AZD5153] + C[C@@H]1COCCN1C2=NC(=NC(=C2)C3(CC3)[S@](=N)(=O)C)C4=C5C=CNC5=NC=C4 [AZD6738] (first compound max 1 µM, 7x7, partner max 10 µM) | 0.0447 | -0.0166 | -0.0013 | -0.0353 | 0.0206 | -0.0217 | -0.0009 | -0.031 | -0.0799 | -0.0263 | -0.0425 | -0.0198 | -0.0283 | -0.0179 | -0.0023 | -0.0205 | 0.101 | -0.131 | 0.0621 | 0.019
COc1nnc2ccc(N3CCC(c4ccc(OCCN5CCN(C)C(=O)[C@H]5C)cc4)CC3)nn12 [AZD5153] + Cc1c2c(nn1C)CSCc1cc(n(C)n1)CSc1cc(c3ccccc3c1)OCCCc1c(C(=O)O)n(C)c3c-2c(Cl)ccc13 [AZD5991] (first compound max 1 µM, 7x7, partner max 1 µM) | -0.0083 | 0.0167 | -0.015 | -0.0797 | -0.0116 | -0.0231 | 0.031 | 0.0451 | -0.0536 | -0.0104 | -0.0242 | -0.0119 | -0.0208 | -0.0377 | -0.0227 | -0.0372 | -0.0237 | -0.0524 | 0.0634 | 0.0034
COc1nnc2ccc(N3CCC(c4ccc(OCCN5CCN(C)C(=O)[C@H]5C)cc4)CC3)nn12 [AZD5153] + Cn1cnc2c(F)c(Nc3ccc(Br)cc3Cl)c(C(=O)NOCCO)cc21 [Selumetinib] (first compound max 1 µM, 7x7, partner max 10 µM) | -0.0064 | -0.0593 | -0.0864 | 0.0168 | 0.0304 | 0.0157 | 0.0512 | -0.008 | -0.0375 | -0.0666 | -0.0089 | -0.0445 | -0.0332 | -0.0134 | 0.0059 | -0.0138 | -0.0197 | -0.0588 | 0.0702 | -0.0133
